Tests used:
5-HT3 receptor = settings: cantharidine blister base; cited from earlier work
behavioral activity = assay: Studies A to D taken together (ethological and endocrinological tests); assay type: in vivo, mouse
Description: Male intruder mice show only low levels of social activity and high levels of defensive activity when introduced into the home cage of an individually housed adult male. Benzodiazepines and related drugs increase approaxh activities in this situation (Dixon 1982, Triangle 21: 95-105 (1982) Krsiak. M. Br. J. Pharmacol. 55: 141-150 (1975)). Compounds of formula I, in oral doses of 0.1 to 1 mg/kg increase approach oriented social activity.
Stretched attend postures in mice signify an ambivalent form of conflict which is inhibited by putative anxiolytics (Kaeserman HP Psychopharmacology (1986) 89: 31-37). Compounds of formula I, when given 2 hours before, reduce the duration of stretched attend postures to mice placed on a novel elevated platform.
Compounds of formula I reduce such stress-induced corticosterone at 1 mg/kg p.o. whilst doses from 0.1 to 0.3 increase plasma levels of this hormone.

5-HT3 receptors = settings: isolated rabbit vagus nerve; cited from earlier work
migraine attack = settings: slow i.v. injection of 10 mg; cited from earlier work

Structure (SMILES)	relative activity among the compounds of formula I (behavioral activity)	blockade of the action of serotonin on the C fibre action potential (5-HT3 receptors)	other results
CCN(CC)C(=O)[C@@H]1C=C2c3cccc4[nH]cc(c34)C[C@H]2N(C)C1 [lysergic acid diethylamide]	–	–	inhibition of the algesic action of serotonin (5-HT3 receptor): not inhibited
CCN(CC)C(=O)[C@@H]1C=C2c3cccc4[nH]c(Br)c(c34)C[C@H]2N(C)C1 [its bromo derivative]	–	–	inhibition of the algesic action of serotonin (5-HT3 receptor): not inhibited
CN1C2CCC1CC(=CC(=O)c1c[nH]c3ccccc13)C2 (single isomer, unassigned; (+)) [compound F, (+)-Indol-3-yl-carbonyl-methylenyl-3-(8-methyl-8-azabicyclo[3.2.1]octane)]	most active	–	–
CCN(CC)C(=O)[C@@H]1C=C2c3cccc4[nH]c(Br)c(c34)C[C@H]2N(C)C1 [BOL -148]	–	not blocked	–
CN1C2CCC1CC(=CC(=O)c1c[nH]c3ccccc13)C2 [compound E, Indol-3-yl-carbonyl-methylenyl-3-(8-methyl-8-azabicyclo[3.2.1]octane)]	most active	–	–
CSc1ccc2c(c1)C(N1CCN(C)CC1)Cc1ccccc1S2 (stereo not drawn) [metitepine]	–	not blocked	–
CN1C2CCC1CC(=CC(=O)c1c[nH]c3ccccc13)C2 (single isomer, unassigned; (-)) [compound G, (-)-Indol-3-yl-carbonyl-methylenyl-3-(8-methyl-8-azabicyclo[3.2.1]octane)]	most active	–	–
CC[C@@H](CO)NC(=O)[C@@H]1C=C2c3cccc4c3c(cn4C)C[C@H]2N(C)C1 [methysergide]	–	not blocked	–
CCN(CC)CCNC(=O)c1cc(Cl)c(N)cc1OC [Metoclopramide]	–	–	effect on a migraine attack (migraine attack): immediate beneficial effect

Source: patent US4826838A, “Analgesic carbocyclic and heterocyclic carbonylmethylene-and carbonylmethypipidines and-pyrrolidines” (Sandoz Ltd., priority 1985, dated 1989)
